Measurements taken from US8722929B2, “N-[2-amino-4-(phenylmethoxy)phenyl] amides and related compounds as potassium channel modulators” (Valeant Pharmaceuticals International, priority 2006, dated 2014).
Where two headings read alike, the source gives them in different places.

Molecular target: T1, KCNQ 2/3 (Rattus norvegicus, UniProt O88943+O88944)
T1 construct: endogenous in cells; host or cells: PC-12 cells differentiated with NGF
Test: KCNQ 2/3 activator assay by rubidium (Rb+) efflux from NGF-differentiated PC-12 cells
Type: cell-based
Procedure: Compounds of the following formula were assayed as KCNQ 2/3 activators by measuring rhubidium release.
PC-12 cells were grown at 37° C. and 5% CO2 in DMEM/F12 Medium supplemented with 10% horse serum, 5% fetal bovine serum, 2 mM glutamine, 100 U/ml penicillin, 100 U/ml streptomycin. They were plated in poly-D-lysine-coated 96-well cell culture microplates at a density of 40,000 cells/well and differentiated with 100 ng/ml NGF-7s for 2-5 days. For the assay, the medium was aspirated and the cells were washed once with 0.2 ml in wash buffer (25 mM Hepes, pH 7.4, 150 mM NaCl, 1 mM MgCl2, 0.8 mM NaH2PO4, 2 mM CaCl2). The cells were then loaded with 0.2 ml Rb^+ loading buffer (wash buffer plus 5.4 mM […], 5 mM glucose) and incubated at 37° C. for 2 h. Attached cells were quickly washed three times with buffer (same as Rb^+ loading buffer, but containing 5.4 mM KCl instead of RbCl) to remove extracellular Rb^+. Immediately following the wash, 0.2 ml of depolarization buffer (wash buffer plus 15 mM KCl) with or without compounds was added to the cells to activate efflux of potassium ion channels. After incubation for 10 min at room temperature, the supernatant was carefully removed and collected. Cells were lysed by the addition of 0.2 ml of lysis buffer (depolarization buffer plus 0.1% Triton X-100) and the cell lysates were also collected. If collected samples were not immediately analyzed for Rb^+ contents by atomic absorption spectroscopy (see below), they were stored at 4° C. without any negative effects on subsequent Rb^+ analysis.
The concentration of Rb^+ in the supernatants (Rb^+ sup) and cell lysates (Rb^+Lys) was quantified using an ICR8000 flame atomic absorption spectrometer (Aurora Biomed Inc., Vancouver, B.C.) under conditions defined by the manufacturer. One 0.05 ml samples were processed automatically from microtiter plates by dilution with an equal volume of Rb^+ sample analysis buffer and injection into an air-acetylene flame. The amount of Rb^+ in the sample was measured by absorption at 780 nm using a hollow cathode lamp as light source and a PMT detector. A calibration curve covering the range 0-5 mg/L Rb^+ in sample analysis buffer was generated with each set of plates. The percent Rb^+ efflux (F) was defined by F=[Rb^+Sup/(Rb^+Sup+Rb^+Lys)]×100%
The effect (E) of a compound was defined by: E=[(Fc−Fb)/(Fs−Fb)]×100% where the Fc is the efflux in the presence of compound in depolarization buffer, Fb is the efflux in basal buffer, and Fs is the efflux in depolarization buffer, and Fc is the efflux in the presence of compound in depolarization buffer. The effect (E) and compound concentration relationship was plotted to calculate an EC50 value, a compound's concentration for 50% of maximal Rb^+ efflux.

[1] = Rb+ efflux, PC-12 cells, depolarization buffer 15 mM KCl, 10 min, compounds of formula A, read-out: EC50
[2] = Rb+ efflux, PC-12 cells, depolarization buffer 15 mM KCl, 10 min, compounds of formula B, read-out: EC50

Structure (SMILES) | EC50 [1] [µM] | EC50 [2] [µM] | other results
CC(C)(C)CC(=O)Nc1ccc(OCc2ccc(F)c(F)c2)cc1N [II, N-(2-amino-4-(3,4-difluorobenzyloxy)phenyl)-3,3-dimethylbutanamide] | < 2 | – | –
CCOC(=O)Nc1ccc(NCc2ccc(F)cc2)cc1N [retigabine, N-[2-amino-4-(4-fluorobenzylamino)phenyl]carbamic acid, ethyl ester] | – | – | EC50: < 2 µM; EC50 (Rb+ efflux, PC-12 cells, depolarization buffer 15 mM KCl, 10 min, compounds of formula B): < 2 µM
CC(C)(C)CC(=O)Nc1ccc(OCc2ccc(F)cc2)cc1N [I, N-(2-amino-4-(4-fluorobenzyloxy)phenyl)-3,3-dimethylbutanamide] | < 2 | – | –
CCOC(=O)Nc1ccc(NCc2ccc(F)cc2)nc1N [flupirtine] | < 15 | < 15 | –
COC(=O)Nc1ccc(OCc2ccc(F)cc2)cc1N [V, Methyl 2-amino-4-(4-fluorobenzyloxy)phenylcarbamate] | – | < 15 | –
CC(C)(C)CC(=O)Nc1ccc(OCc2ccc(Cl)s2)cc1N [III, N-(2-amino-4-((5-chlorothiophen-2-yl)methoxy)phenyl)-3,3-dimethylbutanamide] | < 2 | – | –
